Measured values published in ChEMBL document CHEMBL4507262, “Data for DCP probe A-1596586” (2021).

Experiments:
[1] = biological target: Epithelial discoidin domain-containing receptor 1 (Homo sapiens) (UniProt Q08345); conditions: Compound concentration 1000.0 nM
[2] = test system: Tyrosine-protein kinase ABL1 (Homo sapiens), P00519 [Q252H]; conditions: Compound concentration 1000.0 nM
[3] = biological target: Serine/threonine-protein kinase DCLK1 (Homo sapiens) (UniProt O15075); conditions: Compound concentration 1000.0 nM
[4] = biological target: Mitogen-activated protein kinase 6 (Homo sapiens) (UniProt Q16659); conditions: Compound concentration 1000.0 nM
[5] = biological target: Calcium/calmodulin-dependent protein kinase kinase 2 (Homo sapiens) (UniProt Q96RR4); conditions: Compound concentration 1000.0 nM
[6] = biological target: Interleukin-1 receptor-associated kinase 1 (Homo sapiens) (UniProt P51617); conditions: Compound concentration 1000.0 nM
[7] = biological target: Casein kinase I isoform gamma-2 (Homo sapiens) (UniProt P78368); conditions: Compound concentration 1000.0 nM
[8] = biological target: cAMP-dependent protein kinase catalytic subunit beta (Homo sapiens) (UniProt P22694); conditions: Compound concentration 1000.0 nM
[9] = biological target: Vasopressin V1a receptor (Homo sapiens) (UniProt P37288); assay: V1 a (h) Eurofins-Cerep binding assay; parameters: ligand concentration 0.3 nM; conditions: filed as agonist, Compound concentration 10.0 uM
[10] = biological target: Tyrosine-protein kinase JAK2 (Homo sapiens) (UniProt O60674); conditions: Compound concentration 1000.0 nM
[11] = biological target: Tyrosine-protein kinase Fes/Fps (Homo sapiens) (UniProt P07332); conditions: Compound concentration 1000.0 nM
Sequence of Tyrosine-protein kinase Fes/Fps (Homo sapiens) (P07332 whole entry): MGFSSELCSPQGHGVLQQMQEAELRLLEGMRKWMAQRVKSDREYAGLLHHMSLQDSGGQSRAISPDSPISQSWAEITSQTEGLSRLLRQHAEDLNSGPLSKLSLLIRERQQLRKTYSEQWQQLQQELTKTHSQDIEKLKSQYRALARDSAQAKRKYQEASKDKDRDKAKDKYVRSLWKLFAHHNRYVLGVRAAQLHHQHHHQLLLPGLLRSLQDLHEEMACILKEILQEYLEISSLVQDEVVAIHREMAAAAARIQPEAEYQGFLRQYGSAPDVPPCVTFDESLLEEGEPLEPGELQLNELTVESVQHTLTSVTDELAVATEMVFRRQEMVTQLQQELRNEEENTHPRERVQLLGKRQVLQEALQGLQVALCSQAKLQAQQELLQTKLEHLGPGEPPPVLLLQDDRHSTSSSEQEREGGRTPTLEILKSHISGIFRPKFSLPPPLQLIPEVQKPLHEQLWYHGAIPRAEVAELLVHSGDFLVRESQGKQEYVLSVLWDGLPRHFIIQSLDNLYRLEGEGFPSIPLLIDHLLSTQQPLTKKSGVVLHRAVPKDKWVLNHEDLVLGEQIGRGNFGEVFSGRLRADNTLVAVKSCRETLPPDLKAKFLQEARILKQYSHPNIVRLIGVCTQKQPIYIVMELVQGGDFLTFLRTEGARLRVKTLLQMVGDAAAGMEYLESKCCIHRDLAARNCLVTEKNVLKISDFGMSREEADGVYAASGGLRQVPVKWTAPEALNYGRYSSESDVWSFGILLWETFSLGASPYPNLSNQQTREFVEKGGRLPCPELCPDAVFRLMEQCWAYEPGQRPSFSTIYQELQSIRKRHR

[12] = biological target: Platelet-derived growth factor receptor alpha (Homo sapiens) (UniProt P16234); conditions: Compound concentration 1000.0 nM
[13] = biological target: Receptor-interacting serine/threonine-protein kinase 1 (Homo sapiens) (UniProt Q13546); conditions: Compound concentration 1000.0 nM
Sequence of Receptor-interacting serine/threonine-protein kinase 1 (Homo sapiens) (Q13546 whole entry): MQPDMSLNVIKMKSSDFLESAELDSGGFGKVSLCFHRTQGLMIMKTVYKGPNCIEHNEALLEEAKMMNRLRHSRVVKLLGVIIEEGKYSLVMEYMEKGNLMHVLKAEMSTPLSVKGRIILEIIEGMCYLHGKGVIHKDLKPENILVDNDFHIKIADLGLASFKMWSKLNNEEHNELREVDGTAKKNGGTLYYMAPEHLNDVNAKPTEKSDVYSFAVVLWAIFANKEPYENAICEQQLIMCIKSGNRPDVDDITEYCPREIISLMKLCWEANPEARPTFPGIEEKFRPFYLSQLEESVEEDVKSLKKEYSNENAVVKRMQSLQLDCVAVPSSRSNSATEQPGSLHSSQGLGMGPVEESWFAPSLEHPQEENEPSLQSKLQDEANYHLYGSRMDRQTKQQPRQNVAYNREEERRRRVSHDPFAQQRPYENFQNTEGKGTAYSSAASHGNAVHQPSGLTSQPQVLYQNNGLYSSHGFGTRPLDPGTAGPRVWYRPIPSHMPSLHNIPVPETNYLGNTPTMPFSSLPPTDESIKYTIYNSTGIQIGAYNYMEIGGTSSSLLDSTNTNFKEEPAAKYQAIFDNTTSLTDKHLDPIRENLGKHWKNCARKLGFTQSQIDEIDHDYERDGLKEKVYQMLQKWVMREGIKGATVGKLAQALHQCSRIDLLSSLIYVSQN

[14] = test system: Hepatocyte growth factor receptor (Homo sapiens), P08581 [M1250T]; conditions: Compound concentration 1000.0 nM
[15] = biological target: Casein kinase I isoform epsilon (Homo sapiens) (UniProt P49674); conditions: Compound concentration 1000.0 nM
[16] = biological target: Mast/stem cell growth factor receptor Kit (Homo sapiens) (UniProt P10721); conditions: Compound concentration 1000.0 nM
[17] = biological target: D(3) dopamine receptor (Homo sapiens) (UniProt P35462); conditions: Compound concentration 10.0 uM
[18] = biological target: Alpha-2C adrenergic receptor (Homo sapiens) (UniProt P18825); conditions: Compound concentration 10.0 uM
[19] = biological target: GABA-A receptor; alpha-1/beta-2/gamma-2 (Homo sapiens) (UniProt P14867+P47870+P18507); assay: GABAA1 (h) (alpha1,beta2,gamma2) Eurofins-Cerep binding assay; assay type: protein-complex assay; parameters: ligand concentration 15 nM; conditions: filed as agonist, Compound concentration 10.0 uM
[20] = biological target: STE20-like serine/threonine-protein kinase (Homo sapiens) (UniProt Q9H2G2); conditions: Compound concentration 1000.0 nM
[21] = biological target: Serine/threonine-protein kinase 17B (Homo sapiens) (UniProt O94768); conditions: Compound concentration 1000.0 nM
[22] = biological target: Alpha-1D adrenergic receptor (Homo sapiens) (UniProt P25100); conditions: Compound concentration 10.0 uM
[23] = biological target: Serine/threonine-protein kinase DCLK2 (Homo sapiens) (UniProt Q8N568); conditions: Compound concentration 1000.0 nM
[24] = biological target: Serine/threonine-protein kinase N2 (Homo sapiens) (UniProt Q16513); conditions: Compound concentration 1000.0 nM
[25] = biological target: Serine/threonine-protein kinase 32C (Homo sapiens) (UniProt Q86UX6); conditions: Compound concentration 1000.0 nM
Sequence of Serine/threonine-protein kinase 32C (Homo sapiens) (Q86UX6 whole entry): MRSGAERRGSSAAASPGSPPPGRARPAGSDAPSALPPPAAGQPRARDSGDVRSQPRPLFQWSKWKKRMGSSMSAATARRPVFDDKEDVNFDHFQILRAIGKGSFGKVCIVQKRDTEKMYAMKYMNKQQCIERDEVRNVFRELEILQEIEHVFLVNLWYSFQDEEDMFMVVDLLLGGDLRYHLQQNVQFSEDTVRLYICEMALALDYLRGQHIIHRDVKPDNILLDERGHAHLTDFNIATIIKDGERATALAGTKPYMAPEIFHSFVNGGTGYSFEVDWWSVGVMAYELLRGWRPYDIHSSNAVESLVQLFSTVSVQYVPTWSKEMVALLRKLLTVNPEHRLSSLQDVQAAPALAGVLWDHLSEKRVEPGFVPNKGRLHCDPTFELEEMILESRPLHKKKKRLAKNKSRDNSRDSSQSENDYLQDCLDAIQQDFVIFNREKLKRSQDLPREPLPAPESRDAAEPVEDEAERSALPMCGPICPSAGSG

[26] = biological target: Rho-associated protein kinase 1 (Homo sapiens) (UniProt Q13464); conditions: Compound concentration 1000.0 nM
[27] = test system: Tyrosine-protein kinase ABL1 (Homo sapiens), P00519 [Y253F]; conditions: Compound concentration 1000.0 nM
[28] = biological target: Death-associated protein kinase 3 (Homo sapiens) (UniProt O43293); conditions: Compound concentration 1000.0 nM
[29] = biological target: Interleukin-1 receptor-associated kinase 3 (Homo sapiens) (UniProt Q9Y616); conditions: Compound concentration 1000.0 nM
[30] = biological target: Ribosomal protein S6 kinase alpha-2 (Homo sapiens) (UniProt Q15349); conditions: Compound concentration 1000.0 nM
[31] = biological target: 5-hydroxytryptamine receptor 2B (Homo sapiens) (UniProt P41595); assay: 5-HT2B (h) Eurofins-Cerep binding assay; parameters: ligand concentration 0.2 nM; conditions: filed as agonist, Compound concentration 10.0 uM
[32] = biological target: Focal adhesion kinase 1 (Homo sapiens) (UniProt Q05397); conditions: Compound concentration 1000.0 nM
Sequence of Focal adhesion kinase 1 (Homo sapiens) (Q05397 2-1052 limits assumed): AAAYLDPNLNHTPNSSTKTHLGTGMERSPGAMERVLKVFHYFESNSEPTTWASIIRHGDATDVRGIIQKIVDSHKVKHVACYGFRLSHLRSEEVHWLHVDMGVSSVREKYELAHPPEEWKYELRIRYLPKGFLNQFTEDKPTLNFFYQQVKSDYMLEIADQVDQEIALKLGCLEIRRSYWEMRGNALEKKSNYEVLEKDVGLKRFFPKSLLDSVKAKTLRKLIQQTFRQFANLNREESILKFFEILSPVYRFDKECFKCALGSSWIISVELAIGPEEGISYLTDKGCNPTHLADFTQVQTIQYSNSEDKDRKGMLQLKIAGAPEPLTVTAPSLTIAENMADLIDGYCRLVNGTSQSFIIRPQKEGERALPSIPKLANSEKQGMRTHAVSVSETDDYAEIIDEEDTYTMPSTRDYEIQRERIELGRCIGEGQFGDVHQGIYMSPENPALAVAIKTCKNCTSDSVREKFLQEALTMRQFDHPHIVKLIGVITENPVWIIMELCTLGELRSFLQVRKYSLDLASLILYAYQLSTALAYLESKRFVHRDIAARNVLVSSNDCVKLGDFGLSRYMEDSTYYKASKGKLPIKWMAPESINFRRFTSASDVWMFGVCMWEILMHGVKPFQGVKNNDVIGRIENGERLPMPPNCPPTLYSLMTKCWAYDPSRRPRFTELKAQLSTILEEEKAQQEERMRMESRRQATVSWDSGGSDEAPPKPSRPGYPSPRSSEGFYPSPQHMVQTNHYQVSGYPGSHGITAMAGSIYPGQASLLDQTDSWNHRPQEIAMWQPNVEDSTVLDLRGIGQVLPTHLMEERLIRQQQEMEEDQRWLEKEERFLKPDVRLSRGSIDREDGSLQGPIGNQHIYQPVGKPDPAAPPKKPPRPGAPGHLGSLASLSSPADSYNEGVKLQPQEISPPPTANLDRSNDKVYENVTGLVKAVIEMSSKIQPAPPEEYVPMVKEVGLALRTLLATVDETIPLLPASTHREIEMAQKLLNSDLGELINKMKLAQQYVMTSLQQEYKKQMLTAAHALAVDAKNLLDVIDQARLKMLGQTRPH

[33] = biological target: Sigma non-opioid intracellular receptor 1 (Homo sapiens, UniProt Q99720); assay: GPCRScan assay: inhibition of Sigma 1; parameters: radioligand conc. used [nm] 4.0 – 5.0, parental cells HEKT
[34] = biological target: Cyclin-dependent kinase 3 (Homo sapiens) (UniProt Q00526); conditions: Compound concentration 1000.0 nM
Sequence of Cyclin-dependent kinase 3 (Homo sapiens) (Q00526 whole entry, looked up): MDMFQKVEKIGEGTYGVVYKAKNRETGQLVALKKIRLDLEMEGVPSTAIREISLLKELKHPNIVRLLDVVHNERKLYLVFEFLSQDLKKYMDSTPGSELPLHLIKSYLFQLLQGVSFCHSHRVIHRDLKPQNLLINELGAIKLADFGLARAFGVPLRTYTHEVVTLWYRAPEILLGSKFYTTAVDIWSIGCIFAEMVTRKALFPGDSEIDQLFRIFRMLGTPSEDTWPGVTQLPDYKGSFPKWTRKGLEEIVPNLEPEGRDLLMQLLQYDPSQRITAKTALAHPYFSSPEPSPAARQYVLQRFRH

[35] = biological target: Homeodomain-interacting protein kinase 4 (Homo sapiens) (UniProt Q8NE63); conditions: Compound concentration 1000.0 nM
[36] = biological target: 5-hydroxytryptamine receptor 4 (Homo sapiens) (UniProt Q13639); assay: 5-HT4 e (h) Eurofins-Cerep binding assay; parameters: ligand concentration 0.3 nM; conditions: filed as antagonist, Compound concentration 10.0 uM
[37] = biological target: Serine/threonine-protein kinase/endoribonuclease IRE1 (Homo sapiens) (UniProt O75460); conditions: Compound concentration 1000.0 nM
Sequence of Serine/threonine-protein kinase/endoribonuclease IRE1 (Homo sapiens) (O75460 19-977 limits assumed): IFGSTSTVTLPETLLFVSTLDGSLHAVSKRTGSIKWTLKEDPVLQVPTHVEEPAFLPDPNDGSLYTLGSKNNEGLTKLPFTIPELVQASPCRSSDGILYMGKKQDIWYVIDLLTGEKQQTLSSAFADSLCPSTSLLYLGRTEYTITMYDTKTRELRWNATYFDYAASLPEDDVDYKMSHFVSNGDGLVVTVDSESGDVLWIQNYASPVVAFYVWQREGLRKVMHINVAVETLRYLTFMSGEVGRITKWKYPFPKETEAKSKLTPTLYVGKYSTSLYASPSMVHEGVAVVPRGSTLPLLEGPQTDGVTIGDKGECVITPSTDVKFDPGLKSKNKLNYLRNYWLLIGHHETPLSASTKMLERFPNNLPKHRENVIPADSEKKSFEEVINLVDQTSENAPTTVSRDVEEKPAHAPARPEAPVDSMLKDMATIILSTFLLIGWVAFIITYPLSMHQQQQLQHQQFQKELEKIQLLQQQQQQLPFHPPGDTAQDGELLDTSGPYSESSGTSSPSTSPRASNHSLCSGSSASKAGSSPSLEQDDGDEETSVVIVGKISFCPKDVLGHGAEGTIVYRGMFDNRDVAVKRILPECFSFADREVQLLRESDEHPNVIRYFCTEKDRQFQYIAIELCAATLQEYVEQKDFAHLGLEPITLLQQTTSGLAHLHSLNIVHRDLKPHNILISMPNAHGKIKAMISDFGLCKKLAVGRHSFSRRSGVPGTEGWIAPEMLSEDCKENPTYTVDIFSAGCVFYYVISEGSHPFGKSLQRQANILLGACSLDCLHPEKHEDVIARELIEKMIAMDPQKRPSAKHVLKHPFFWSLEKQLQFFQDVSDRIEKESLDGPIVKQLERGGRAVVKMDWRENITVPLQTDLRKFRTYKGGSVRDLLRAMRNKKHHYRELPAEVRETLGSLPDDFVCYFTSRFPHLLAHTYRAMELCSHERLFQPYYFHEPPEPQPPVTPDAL

[38] = biological target: Activin receptor type-2B (Homo sapiens) (UniProt Q13705); conditions: Compound concentration 1000.0 nM
[39] = biological target: Cyclin-dependent kinase 11A (Homo sapiens) (UniProt Q9UQ88); conditions: Compound concentration 1000.0 nM
Sequence of Cyclin-dependent kinase 11A (Homo sapiens) (Q9UQ88 whole entry): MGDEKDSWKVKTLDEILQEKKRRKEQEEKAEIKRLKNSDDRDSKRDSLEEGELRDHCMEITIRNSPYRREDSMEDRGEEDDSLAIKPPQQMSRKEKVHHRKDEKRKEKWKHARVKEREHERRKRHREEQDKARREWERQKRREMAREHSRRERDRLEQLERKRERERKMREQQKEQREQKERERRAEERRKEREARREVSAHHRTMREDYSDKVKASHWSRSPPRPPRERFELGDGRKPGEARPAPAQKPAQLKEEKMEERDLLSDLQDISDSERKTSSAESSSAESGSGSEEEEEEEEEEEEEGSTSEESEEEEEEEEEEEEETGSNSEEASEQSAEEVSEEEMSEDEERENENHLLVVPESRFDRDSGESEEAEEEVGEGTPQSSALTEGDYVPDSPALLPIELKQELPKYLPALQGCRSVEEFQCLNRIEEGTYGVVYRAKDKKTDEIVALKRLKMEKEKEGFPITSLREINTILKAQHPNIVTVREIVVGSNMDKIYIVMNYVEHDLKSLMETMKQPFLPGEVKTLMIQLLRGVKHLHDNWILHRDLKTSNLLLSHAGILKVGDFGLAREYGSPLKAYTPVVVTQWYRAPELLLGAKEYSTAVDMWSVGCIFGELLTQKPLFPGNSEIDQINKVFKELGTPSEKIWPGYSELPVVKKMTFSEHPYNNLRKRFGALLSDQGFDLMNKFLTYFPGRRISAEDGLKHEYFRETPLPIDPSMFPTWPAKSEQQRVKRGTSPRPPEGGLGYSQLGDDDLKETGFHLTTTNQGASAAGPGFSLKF

[40] = biological target: Receptor-interacting serine/threonine-protein kinase 4 (Homo sapiens) (UniProt P57078); conditions: Compound concentration 1000.0 nM
[41] = biological target: Serine/threonine-protein kinase N1 (Homo sapiens) (UniProt Q16512); conditions: Compound concentration 1000.0 nM
[42] = biological target: Ribosomal protein S6 kinase alpha-1 (Homo sapiens) (UniProt Q15418); conditions: Compound concentration 1000.0 nM
[43] = test system: Hepatocyte growth factor receptor (Homo sapiens), P08581 [Y1235D]; conditions: Compound concentration 1000.0 nM
[44] = biological target: Myotonin-protein kinase (Homo sapiens) (UniProt Q09013); conditions: Compound concentration 1000.0 nM
[45] = biological target: Ribosomal protein S6 kinase alpha-5 (Homo sapiens) (UniProt O75582); conditions: Compound concentration 1000.0 nM

## COc1ccc2c(c1)O[C@@H](c1ccc(OC)c(OC)c1)C[C@H]2NC(=O)C1(c2ccc3c(c2)OC(F)(F)O3)CC1 [A-1596586]
[1]
  residual activity: 100%
[2]
  residual activity: 90%
[3]
  residual activity: 82%
[4]
  residual activity: 100%
[5]
  residual activity: 96%
[6]
  residual activity: 80%
[7]
  residual activity: 88%
[8]
  residual activity: 95%
[9]
  % Inhibition of Control Specific Binding (Mean n=2): 4.7%
[10]
  residual activity: 75%
[11]
  residual activity: 93%
[12]
  residual activity: 78%
[13]
  residual activity: 93%
[14]
  residual activity: 95%
[15]
  residual activity: 100%
[16]
  residual activity: 86%
[17]
  inhibition: -1.53%
[18]
  inhibition: 15.8%
[19]
  % Inhibition of Control Specific Binding (Mean n=2): -27.5%
[20]
  residual activity: 100%
[21]
  residual activity: 100%
[22]
  inhibition: 2.75%
[23]
  residual activity: 86%
[24]
  residual activity: 100%
[25]
  residual activity: 100%
[26]
  residual activity: 89%
[27]
  residual activity: 78%
[28]
  residual activity: 93%
[29]
  residual activity: 85%
[30]
  residual activity: 95%
[31]
  % Inhibition of Control Specific Binding (Mean n=2): 8.5%
[32]
  residual activity: 94%
[33]
  Ki: 0.315 µM
[34]
  residual activity: 100%
[35]
  residual activity: 51%
[36]
  % Inhibition of Control Specific Binding (Mean n=2): 10.2%
[37]
  residual activity: 100%
[38]
  residual activity: 96%
[39]
  residual activity: 100%
[40]
  residual activity: 67%
[41]
  residual activity: 96%
[42]
  residual activity: 85%
[43]
  residual activity: 100%
[44]
  residual activity: 93%
[45]
  residual activity: 100%

## COc1ccc2c(c1)O[C@H](c1ccc(OC)c(OC)c1)C[C@@H]2NC(=O)C1(c2ccc3c(c2)OC(F)(F)O3)CC1 [A-1596584]
[1]
  residual activity: 100%
[2]
  residual activity: 100%
[3]
  residual activity: 100%
[4]
  residual activity: 100%
[5]
  residual activity: 100%
[6]
  residual activity: 93%
[7]
  residual activity: 95%
[8]
  residual activity: 99%
[9]
  % Inhibition of Control Specific Binding (Mean n=2): 5.9%
[10]
  residual activity: 98%
[11]
  residual activity: 97%
[12]
  residual activity: 87%
[13]
  residual activity: 100%
[14]
  residual activity: 89%
[15]
  residual activity: 100%
[16]
  residual activity: 100%
[17]
  inhibition: -9.23%
[18]
  inhibition: 10.1%
[19]
  % Inhibition of Control Specific Binding (Mean n=2): -86.2%
[20]
  residual activity: 100%
[21]
  residual activity: 100%
[22]
  inhibition: 0.16%
[23]
  residual activity: 98%
[24]
  residual activity: 100%
[25]
  residual activity: 84%
[26]
  residual activity: 84%
[27]
  residual activity: 93%
[28]
  residual activity: 95%
[29]
  residual activity: 86%
[30]
  residual activity: 95%
[31]
  % Inhibition of Control Specific Binding (Mean n=2): -14.6%
[32]
  residual activity: 100%
[33]
  Ki: 2.74 µM
[34]
  residual activity: 100%
[35]
  residual activity: 91%
[36]
  % Inhibition of Control Specific Binding (Mean n=2): 5.3%
[37]
  residual activity: 100%
[38]
  residual activity: 100%
[39]
  residual activity: 100%
[40]
  residual activity: 75%
[41]
  residual activity: 100%
[42]
  residual activity: 100%
[43]
  residual activity: 100%
[44]
  residual activity: 94%
[45]
  residual activity: 100%
